Reference: US10179927B2, “Electrochemical detection of microorganisms” (priority 2014, dated 2019)
Like-named read-outs stand apart in the source and are kept apart here. Marks after values point to notes of the source that are not given here.

Assays:
[1] = system: E. coli; experiment: Current from unconjugated redox active reporter moieties mediating electron transfer between E. coli and the electrode in ECs; format: cell-based, Escherichia coli; details: 5×10^5 CFU mL^−1 of E. coli; for Maximum recorded current in ECs: unconjugated reporter 50 μM
Experimental: (§1) Resorufin (TCI-Europe), 2-hydroxy-1,4-naphthoquinone (2H14NQ) (TCI-Europe), 5-hydroxy-1,4-naphthoquinone (5H14NQ) (TCI-Europe) and 5,8-dihydroxy-1,4-naphthoquinone (58H14NQ) (Sigma-Aldrich) were obtained commercially and added to M9 medium in their unconjugated form to achieve a working concentration of 50 μM. Resorufin glycoconjugates (resorufin-β-d-galactopyranoside and resorufin-β-d-glucopyranoside) were obtained commercially (Sigma-Aldrich), whereas 2-hydroxy-1,4-naphthoquinone-β-d-galactopyranoside (2H14NQGal) and 2-hydroxy-1,4-naphthoquinone-β-d-glucopyranoside (2H14NQG1u) were specifically synthesized by Sussex Research Ltd. All reporters were added to a final concentration of 50 μM. Stock concentrations (1.0×10^−3 M) of 2H14NQ and 5H14NQ were prepared by first dissolving in 10 μL of 2 M NaOH and then making up to volume in Type II water (Veolia) whereas 58H14NQ (1.0×10^−3 M) was prepared in 1:1 DMSO:Type II water aliquots. Both stock solutions were stored at −20° C. until needed. Conjugated reporters were maintained as 1 mM stock solutions in Type II water and stored at 5° C.
(§2) Escherichia coli strain BL21 was selected to represent a FIB of human origin that contains the uidA and lacZ genes, i.e. a FC, whereas Aeromonas hydrophila (DSM 6173) is an environmental organism that has the lacZ gene but which is not considered a coliform. All organisms were cultured aerobically for 20 h. E. coli was grown in Luria Bertani (Lennox) medium at 37° C., and A. hydrophile at 30° C. in tryptone soy broth (TSB) in a shaking incubator.
(§3) The resulting overnight cultures were diluted in sterile modified M9 medium (Na2HPO4.7H2O (126 mM); KH2PO4 (110 mM); NH4Cl (93 mM); NaCl (42 mM); 1 mL/L vitamin stock solution; tryptone 12.5 g/L; HEPES: 6 g/L; and macro nutrients). The carbon source was either D-galacturonic acid or D-glucuronic acid (3.75 g/L) to achieve a final inoculum density in the range of 1.0×10^0, 5.0×10^0, 5.0×10^1, 5.0×10^2, 5.0×10^3, 5.0×10^4, and 5.0×10^5 CFU mL^−1 in both electrochemical system and the bioelectrochemical system.
Conical ECs with a working volume of 10 mL were used with a customized Teflon cap to accommodate a three electrode configuration along with gas fittings to maintain a moist anaerobic atmosphere. Carbon felt working electrodes (1×1×0.318 cm) (VWR, Singapore) were kept for 24 h in 1 M HCl and stored in deionized (DI) water before use. The electrodes were connected to titanium wire (0.25 mmØ, Sigma-Aldrich) using a nylon nut and bolt. A coiled titanium wire was used as counter electrode and an Ag/AgCl reference electrode (78 mm, 6 mm Outer Ø, Biologic, France) was connected using a 1 M KCl in 1.5% agar salt bridge. The assembled cell was then filled with 1 M KCl solution ending in a 4 mm glass frit (CoralPor™, Biologic, France). The entire assembly was then autoclaved (121° C. for 15 min). Nine mL of degassed modified M9 medium was added to the ECs and supplemented with a reporter to a final concentration of 5.0×10^−5 M in 10 mL working volume. […]
(§4) Following reporter supplement and inoculation with the test microorganism, the ECs were connected to a multichannel potentiostat (Biologic, France) and cyclic voltammetry (CV) and differential pulse voltammetry (DPV) were performed immediately. Data acquisition was recorded by EC-Lab software (Biologic, France). […] A detection event was calculated as 4 times the standard deviation of the baseline and detection times are expressed as the mean of triplicate analyses unless stated otherwise. […]

[2] = system: E. coli; experiment: Current from unconjugated redox active reporter moieties with E. coli in self-powering bioelectrochemical systems (BES, microbial fuel cells); format: cell-based, Escherichia coli; details: 1 kΩ load, ambient temperature
Experimental: as §1, with “5° C. […]” for “5° C.”
Dual chamber U-tube BESs, in the form of microbial fuel cells (MFCs), were constructed with two 90° 28/15 ball-to-plain-end and socket-to-plain-end glass quick fit elbows (17 mm O.D.×1.8 mm wall thickness) (VWR, Singapore) to form the anode and cathode chambers (Sund et al., Appl. Microbiol. Biotechnol. 2007; 76:561-568.). […] A 1 kΩ load was applied across the circuit and potential difference was recorded using an eDAQ e-corder® data acquisition system (ED 1621-16 channel recorder) equipped with Chart™ software (Bronjo Medi, Singapore) at a rate of 1 data point every 5 min. […]
Naphthoquinones are cheap redox active molecules which are compatible with E. coli and can be readily conjugated to pyranose rings (Rau et al. Environ. Sci. Technol. 2002; 36:1497-1504; Park and Zeikus. Appl. Environ. Microbiol. 2000; 66:1292-1297). […]

[3] = system: Escherichia coli strain BL21; experiment: Chronoamperometric detection of E. coli with electrochemically active reporters in three-electrode electrochemical systems (ECs); format: cell-based; details: for Detection time (±std dev): chronoamperometry in ECs, reporter 50 μM; for Detection time for E. coli: inoculum sizes between 5×10^5-5×10^3, ECs (Table 1)
Experimental: as §1, §2, §3
Conical ECs with a working volume of 10 mL were used with a customized Teflon cap to accommodate a three electrode configuration along with gas fittings to maintain a moist anaerobic atmosphere. Carbon felt working electrodes (1×1×0.318 cm) (VWR, Singapore) were kept for 24 h in 1 M HCl and stored in deionized (DI) water before use. The electrodes were connected to titanium wire (0.25 mmØ, Sigma-Aldrich) using a nylon nut and bolt. A coiled titanium wire was used as counter electrode and an Ag/AgCl reference electrode (78 mm, 6 mm Outer Ø, Biologic, France) was connected using a 1 M KCl in 1.5% agar salt bridge. The assembled cell was then filled with 1 M KCl solution ending in a 4 mm glass frit (CoralPor™, Biologic, France). The entire assembly was then autoclaved (121° C. for 15 min). Nine mL of degassed modified M9 medium was added to the ECs and supplemented with a reporter to a final concentration of 5.0×10^−5 M in 10 mL working volume. The ECs were then inoculated with the targeted test organism to achieve a final working volume of 10 mL. The headspace was flushed continuously with sterile humidified N2. The ECs were operated at 30° C., 37° C. or 44.5° C. Stirring was maintained continuously with a magnetic stirrer in the dark to prevent photo-bleaching of the light sensitive mediators.
Following reporter supplement and inoculation with the test microorganism, the ECs were connected to a multichannel potentiostat (Biologic, France) and cyclic voltammetry (CV) and differential pulse voltammetry (DPV) were performed immediately. Data acquisition was recorded by EC-Lab software (Biologic, France). Chronoamperometry (CA) was applied for up to 24 h to detect redox active reporter moieties. A detection event was calculated as 4 times the standard deviation of the baseline and detection times are expressed as the mean of triplicate analyses unless stated otherwise. […]

[4] = system: mixed culture of E. coli and A. hydrophila; experiment: Detection time of mixed culture of A. hydrophila and E. coli in ECs; format: cell-based, Escherichia coli; Aeromonas hydrophila; details: 44.5° C.; E. coli constant 5×10^5 CFU mL^−1; A. hydrophila from 5×10^2-5×10^5 CFU mL^−1 (FIG. 6)
Experimental: as §2, §3
Conical ECs with a working volume of 10 mL were used with a customized Teflon cap to accommodate a three electrode configuration along with gas fittings to maintain a moist anaerobic atmosphere. Carbon felt working electrodes (1×1×0.318 cm) (VWR, Singapore) were kept for 24 h in 1 M HCl and stored in deionized (DI) water before use. The electrodes were connected to titanium wire (0.25 mmØ, Sigma-Aldrich) using a nylon nut and bolt. A coiled titanium wire was used as counter electrode and an Ag/AgCl reference electrode (78 mm, 6 mm Outer Ø, Biologic, France) was connected using a 1 M KCl in 1.5% agar salt bridge. […]
as §4

[5] = system: E. coli; details: Perez et al., cited from earlier work
[6] = system: Escherichia coli; experiment: Suitability of colorimetric detection compounds for bioelectrochemical detection of Escherichia coli; format: cell-based; details: compound used for colorimetric detection of Escherichia coli
Excerpt: Bioelectroanalytical techniques are emerging as ways to enumerate and scrutinize microbial systems. But there is still need in the art for technologies specifically designed for bioelectroanalytical detection of FIB. […] The latter, in particular, makes them unsuitable in self-powering systems.

[7] = 37° C., inoculum 5 × 10^2 CFU mL^−1
[8] = 37° C., inoculum 5 × 10^3 CFU mL^−1
[9] = 37° C., inoculum 5 × 10^4 CFU mL^−1
[10] = 37° C., inoculum 5 × 10^5 CFU mL^−1

| Structure (SMILES) | Maximum recorded current in ECs [1] | Current observed in BES [2] | Detection time (±std dev) [3, 7] | Detection time (±std dev) [3, 8] | Detection time (±std dev) [3, 9] | Detection time (±std dev) [3, 10] | Suitability for bioelectrochemical detection [6] | other results |
| --- | --- | --- | --- | --- | --- | --- | --- | --- |
| O=C1C=C(O)C(=O)c2ccccc21 [2H14NQ, 2-hydroxy-1,4-naphthoquinone] | ~100 μA | 40 μA |  |  |  |  |  | Maximum current relative to that achieved with 5H14NQ ([1]; ECs): ~14 times; Maximum current relative to that observed with 58H14NQ ([1]; ECs): ~25 times |
| O=C1C=C(O[C@@H]2O[C@H](CO)[C@H](O)[C@H](O)[C@H]2O)C(=O)c2ccccc21 [2H14NQGal, 2-hydroxy-1,4-naphthoquinone-β-d-galactopyranoside] |  |  | 413(±14) minutes | 359(±13) minutes | 143(±17) minutes | 113(±13) minutes |  | Detection time ([3]; inoculum equivalent to 5×10^3 CFU mL^−1 of Perez et al., n=3): 6.87 h |
| O=C1C=C(O[C@@H]2O[C@H](CO)[C@@H](O)[C@H](O)[C@H]2O)C(=O)c2ccccc21 [2H14NQGlu, 2-hydroxy-1,4-naphthoquinone-β-d-glucopyranoside] |  |  | 339(±41) minutes | 187(±31) minutes | 142(±11) minutes | 120(±21) minutes |  | Detection time, mixed culture [4]: 125 to 172 min; Detection time (±std dev) ([3]; 30° C., inoculum 5 × 10^2 CFU mL^−1): 832* minutes; Detection time (±std dev) ([3]; 30° C., inoculum 5 × 10^3 CFU mL^−1): 574* minutes; Detection time (±std dev) ([3]; 30° C., inoculum 5 × 10^5 CFU mL^−1): 168* minutes; Detection time ([3]; 44.5° C., 10 organism, FIG. 7): 19 h; Detection time ([3]; 44.5° C., 500 organisms, FIG. 7): 12.5 h; Detection time ([3]; 44.5° C., 5000 organisms, FIG. 7): ~9 h; Detection time ([3]; 44.5° C., "CFU mL^−1 of E. coli" (number not given), FIG. 7): ~19 h; Detection time ([3]; 44.5° C., inoculum size 500 CFU mL^−1, FIG. 7): less than 10 h; Detection time for E. coli [3]: 120 to 188 min |
| Nc1ccc(O[C@@H]2O[C@H](CO)[C@H](O)[C@H](O)[C@H]2O)cc1 [4-APgal, 4-aminophenyl-β-d-galactopyranoside] |  |  |  |  |  |  | not well suited for bioelectrochemical detection | Detection time ([5]; 1 CFU mL^−1 (laboratory sample)): 10 h; Detection time ([5]; 4.5 CFU mL^−1 (marine sample)): 7.3 h |
| O=C(O)[C@H]1O[C@@H](Oc2ccc([N+](=O)[O-])cc2)[C@H](O)[C@@H](O)[C@@H]1O [4-NPglu, 4-nitrophenol-β-d-glucuronidase] |  |  |  |  |  |  | not well suited for bioelectrochemical detection |  |
| O=C1C=CC(=O)c2c(O)cccc21 [5H14NQ, 5-hydroxy-1,4-naphthoquinone] | ~7 μA | 6 μA |  |  |  |  |  |  |
| O=C(O)[C@H]1O[C@@H](Oc2cccc3cccnc23)[C@H](O)[C@@H](O)[C@@H]1O [8-hydroxyquinoline glucuronide] |  |  |  |  |  |  | not well suited for bioelectrochemical detection |  |
| O=C1C=CC(=O)c2c(O)ccc(O)c21 [58H14NQ, 5,8-dihydroxy-1,4-naphthoquinone] | ~4 μA | 2.5 μA |  |  |  |  |  |  |
| O=c1ccc2nc3ccc(O[C@@H]4O[C@H](CO)[C@@H](O)[C@H](O)[C@H]4O)cc3oc-2c1 [ResGlu, resorufin-β-d-glucopyranoside] |  |  | 431(±29) minutes | 397(±52) minutes | 309(±33) minutes | 259(±19) minutes |  | Detection time ([3]; inoculum size 5×10^3 CFU mL^−1, ECs): 6.6 h; Detection time for E. coli [3]: 258 to 397 min |
